Results published in patent publication US20260007133A1, “HERBICIDAL COMPOSITION COMPRISING AZINE COMPOUNDS” (BASF SE, priority 2022, published 2026).

Tests used:
Format in all cases: in vivo
Digitaria sanguinalis = test: Greenhouse post-emergence (POST) herbicidal test on DIGSA; details: Digitaria sanguinalis, post-emergence
In short: (§1)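 For this test, compounds formulated as a 5% by weight emulsion concentrate were diluted into spray liquor and applied post-emergence. Species were kept at 10-25° C or 20-35° C and injury was scored at 20 DAT on a 0–100 scale.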

Euphorbia heterophylla [1] = test: Greenhouse pre-emergence (PRE) herbicidal test on EPHHL; details: Euphorbia heterophylla, pre-emergence
In short: (§2)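 Visual 0–100 rating at 20 days after treatment; 0 = normal growth, 100 = no emergence or complete kill of shoots. Pre-emergent application to seeded pots of loamy sand (~3.0% humus), species-dependent temperature 10-25° C or 20-35° C.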

Abutilon theophrasti [2] = test: Greenhouse post-emergence (POST) herbicidal test on ABUTH; details: Abutilon theophrasti, post-emergence
In short: as §1

Commelina benghalensis = test: Greenhouse pre-emergence (PRE) herbicidal test on COMBE; details: Commelina benghalensis, pre-emergence
In short: as §2

Echinochloa crus-galli [3] = test: Greenhouse pre-emergence (PRE) herbicidal test on ECHCG; details: Echinochloa crus-galli, pre-emergence
Procedure: (§3) The culture containers used were plastic pots containing loamy sand with approximately 3.0% of humus as substrate. The seeds of the test plants were sown separately for each species.
(§4) The containers were irrigated gently to promote germination and growth and subsequently covered with transparent plastic hoods until the plants had rooted.
(§5) Depending on the species, the plants were kept at 10-25° C. and 20-35° C., respectively.
(§6) The test period extended over 2 to 4 weeks. During this time, the plants were tended and their response to the individual treatments was evaluated.
(§7) Evaluation was carried out using a scale from 0 to 100. 100 means no emergence of the plants, or complete destruction of at least the above-ground parts, and 0 means no damage or normal course of growth. A good herbicidal activity is given at values of at least 70, and very good herbicidal activity is given at values of at least 85.
(§8) As indicated application was either post emergent (POST) at the respective growth stage (GS) of the weed (BBCH code), or pre-emergent (PRE). […]

Amaranthus retroflexus [4] = test: Greenhouse post-emergence (POST) herbicidal test on AMARE; details: Amaranthus retroflexus, post-emergence
Procedure: as §3
For the post-emergence treatment, the test plants were grown to a plant height of from 3 to 15 cm, depending on the plant habit, and only then treated with the active compounds which had been suspended or emulsified in water. To this end, the test plants were either sown directly, and grown in the same containers, or they were first grown separately as seedlings and transplanted into the test containers a few days prior to treatment.
as §5, §6, §7
If not stated differently, the respective components A and B, and if appropriate, C were formulated as a 5% by weight strength emulsion concentrate and, with addition of the amount of solvent system, introduced into the spray liquor used for applying the active compound.
as §8

Lolium multiflorum = test: Greenhouse pre-emergence (PRE) herbicidal test on LOLMU; details: Lolium multiflorum, pre-emergence
In short: as §2

Abutilon theophrasti [5] = test: Greenhouse pre-emergence (PRE) herbicidal test on ABUTH; details: Abutilon theophrasti, pre-emergence
In short: as §2

Alopecurus myosuroides = test: Greenhouse pre-emergence (PRE) herbicidal test on ALOMY; details: Alopecurus myosuroides, pre-emergence
In short: as §2

Amaranthus retroflexus [6] = test: Greenhouse pre-emergence (PRE) herbicidal test on AMARE; details: Amaranthus retroflexus, pre-emergence
Procedure: as §3, §4, §5, §6, §7, §8

Ambrosia artemisiifolia = test: Greenhouse pre-emergence (PRE) herbicidal test on AMBEL; details: Ambrosia artemisiifolia, pre-emergence
Geranium pusillum = test: Greenhouse post-emergence (POST) herbicidal test on GERPU; details: Geranium pusillum, post-emergence, 432 h, read-out: % activity
In short: as §1

Echinochloa crus-galli [7] = test: Greenhouse post-emergence (POST) herbicidal test on ECHCG; details: Echinochloa crus-galli, post-emergence, 432 h
In short: as §1

Euphorbia heterophylla [8] = test: Greenhouse post-emergence (POST) herbicidal test on EPHHL; details: Euphorbia heterophylla, post-emergence, 432 h, read-out: % activity
In short: as §1

CS(=O)(=O)NC(=O)c1cc(Oc2ccc(C(F)(F)F)cc2Cl)ccc1[N+](=O)[O-] [Fomesafen, fomesafen]
10%: inhibition at […] (Commelina benghalensis; 480 h, PRE, COMBE, use rate 2.5 gai/ha, 20 DAT, read-out: solo application % activity) | inhibition at 10 g/ha (Commelina benghalensis; 480 h, PRE, COMBE, use rate 10 gai/ha, 20 DAT, read-out: solo application % activity)
0%: inhibition at […] (Euphorbia heterophylla [1]; 480 h, PRE, EPHHL, use rate 2.5 gai/ha, 20 DAT, read-out: solo application % activity) | inhibition at 10 g/ha (Euphorbia heterophylla [1]; 480 h, PRE, EPHHL, use rate 10 gai/ha, 20 DAT, read-out: solo application % activity) | inhibition at […] (Echinochloa crus-galli [3]; 480 h, PRE, ECHCG, use rate 2.5 gai/ha, 20 DAT, read-out: solo application % activity) | inhibition at 10 g/ha (Echinochloa crus-galli [3]; 480 h, PRE, ECHCG, use rate 10 gai/ha, 20 DAT, read-out: solo application % activity) | inhibition at […] (Lolium multiflorum; 480 h, PRE, LOLMU, use rate 2.5 gai/ha, 20 DAT, read-out: solo application % activity) | inhibition at 10 g/ha (Lolium multiflorum; 480 h, PRE, LOLMU, use rate 10 gai/ha, 20 DAT, read-out: solo application % activity) | inhibition at […] (Abutilon theophrasti [5]; 480 h, PRE, ABUTH, use rate 2.5 gai/ha, 20 DAT, read-out: solo application % activity) | inhibition at 10 g/ha (Abutilon theophrasti [5]; 480 h, PRE, ABUTH, use rate 10 gai/ha, 20 DAT, read-out: solo application % activity) | inhibition at […] (Alopecurus myosuroides; 480 h, PRE, ALOMY, use rate 2.5 gai/ha, 20 DAT, read-out: solo application % activity) | inhibition at 10 g/ha (Alopecurus myosuroides; 480 h, PRE, ALOMY, use rate 10 gai/ha, 20 DAT, read-out: solo application % activity) | inhibition at […] (Amaranthus retroflexus [6]; 480 h, PRE, AMARE, use rate 2.5 gai/ha, 20 DAT, read-out: solo application % activity) | inhibition at […] (Ambrosia artemisiifolia; 480 h, PRE, AMBEL, use rate 2.5 gai/ha, 20 DAT, read-out: solo application % activity) | inhibition at 10 g/ha (Ambrosia artemisiifolia; 480 h, PRE, AMBEL, use rate 10 gai/ha, 20 DAT, read-out: solo application % activity)
20%: inhibition at […] (Abutilon theophrasti [2]; 480 h, POST, ABUTH, use rate 2.5 gai/ha, 20 DAT, read-out: solo application % activity) | inhibition at 10 g/ha (Abutilon theophrasti [2]; 480 h, POST, ABUTH, use rate 10 gai/ha, 20 DAT, read-out: solo application % activity)
25%: inhibition at 10 g/ha (Digitaria sanguinalis; 480 h, POST, DIGSA, use rate 10 gai/ha, 20 DAT, read-out: solo application % activity) | inhibition at 10 g/ha (Amaranthus retroflexus [4]; 480 h, POST, AMARE, use rate 10 gai/ha, 20 DAT, read-out: solo application % activity) | inhibition at 10 g/ha (Amaranthus retroflexus [6]; 480 h, PRE, AMARE, use rate 10 gai/ha, 20 DAT, read-out: solo application % activity)

CCC(=O)Nc1ccc(Cl)c(Cl)c1 [Propanil, propanil]
5%: pest or weed control at 500 g/ha (Abutilon theophrasti [2]; 432 h, read-out: % activity)
10%: inhibition at 250 g/ha (Digitaria sanguinalis; 432 h, POST, DIGSA, 250 gai/ha, 18 DAT, read-out: % activity solo application) | pest or weed control at 250 g/ha (Digitaria sanguinalis; 432 h, read-out: % activity) | pest or weed control at 500 g/ha (Digitaria sanguinalis; 432 h, read-out: % activity)
0%: pest or weed control at 250 g/ha (Euphorbia heterophylla [1]; 432 h, read-out: % activity) | pest or weed control at 250 g/ha (Abutilon theophrasti [2]; 432 h, read-out: % activity) | pest or weed control at 250 g/ha (Commelina benghalensis; 432 h, read-out: % activity) | pest or weed control at 250 g/ha (Echinochloa crus-galli [3]; 432 h, read-out: % activity) | pest or weed control at 500 g/ha (Echinochloa crus-galli [3]; 432 h, read-out: % activity) | pest or weed control at 250 g/ha (Amaranthus retroflexus [4]; 432 h, read-out: % activity) | pest or weed control at 500 g/ha (Amaranthus retroflexus [4]; 432 h, read-out: % activity) | inhibition at 250 g/ha (Lolium multiflorum; 432 h, PRE, LOLMU, 250 gai/ha, 18 DAT, read-out: % activity solo application) | inhibition at 500 g/ha (Lolium multiflorum; 432 h, PRE, LOLMU, 500 gai/ha, 18 DAT, read-out: % activity solo application) | pest or weed control at 250 g/ha (Lolium multiflorum; 432 h, read-out: % activity) | pest or weed control at 500 g/ha (Lolium multiflorum; 432 h, read-out: % activity) | inhibition at 250 g/ha (Echinochloa crus-galli [7]; POST, ECHCG, 250 gai/ha, 18 DAT, read-out: % activity solo application) | inhibition at 500 g/ha (Echinochloa crus-galli [7]; POST, ECHCG, 500 gai/ha, 18 DAT, read-out: % activity solo application) | pest or weed control at 250 g/ha (Echinochloa crus-galli [7]; read-out: % activity) | pest or weed control at 500 g/ha (Echinochloa crus-galli [7]; read-out: % activity) | pest or weed control at 500 g/ha (Abutilon theophrasti [5]; 432 h, read-out: % activity) | pest or weed control at 250 g/ha (Euphorbia heterophylla [8]) | pest or weed control at 250 g/ha (Alopecurus myosuroides; 432 h, read-out: % activity) | pest or weed control at 500 g/ha (Alopecurus myosuroides; 432 h, read-out: % activity) | pest or weed control at 500 g/ha (Amaranthus retroflexus [6]; 432 h, read-out: % activity) | pest or weed control at 250 g/ha (Ambrosia artemisiifolia; 432 h, read-out: % activity) | pest or weed control at 500 g/ha (Ambrosia artemisiifolia; 432 h, read-out: % activity)
40%: pest or weed control at 500 g/ha (Geranium pusillum)

CCOC(=O)C(C)Oc1ccc(Oc2cnc3cc(Cl)ccc3n2)cc1 (centres unmarked) [Quizalofop-Ethyl, quizalofop-ethyl]
5%: pest or weed control at 4 g/ha (Euphorbia heterophylla [1]; 480 h, read-out: % activity)
0%: pest or weed control at 2 g/ha (Commelina benghalensis; 480 h, read-out: % activity) | pest or weed control at 4 g/ha (Commelina benghalensis; 480 h, read-out: % activity) | pest or weed control at 2 g/ha (Lolium multiflorum; 480 h, read-out: % activity) | pest or weed control at 4 g/ha (Lolium multiflorum; 480 h, read-out: % activity) | pest or weed control at 2 g/ha (Alopecurus myosuroides; 480 h, read-out: % activity) | pest or weed control at 4 g/ha (Amaranthus retroflexus [6]; 480 h, read-out: % activity) | pest or weed control at 2 g/ha (Ambrosia artemisiifolia; 480 h, read-out: % activity) | pest or weed control at 4 g/ha (Ambrosia artemisiifolia; 480 h, read-out: % activity)
